According to patent US11534377B2, “Hair growth agent” (KOBAYASHI PHARMACEUTICAL CO., LTD., priority 2016, dated 2022):

Assays:
[1] = test system: C3H/He mice; experiment: New hair growth promoting activity in telogen-phase mice after hair removal (Example 3); assay type: in vivo; settings: 5 wt % in 50% ethanol, once/day 100 μl
Source text: The hair follicle that produces a hair shaft is the only organ known to repeat growth and regression over the entire life. Such regular growth and regression are divided into the anagen phase, the catagen phase, and the telogen phase of a hair cycle. The body hair of the back of C3H/He mice is bound to be in the telogen phase 45 to 95 days after birth, and thus an extremely long telogen phase-bound period is observed compared with common mice, such as C57BL/6N mice, whose hair cycle of the body hair of the back lasts about 21 days in total for the anagen phase, the catagen phase, and the telogen phase. […] Therefore, by using C3H/He mice at 45 to 90 days after birth, new hair growth promoting activity can be evaluated. […]
The application was performed for two groups (test solution-applied group and negative control group (50% ethanol-applied group)), where each group consisted of five mice. On the basis of new hair growth score criteria (Table 15) according to appearance changes in a portion of the applied region that leaves the telogen phase and enters a regeneration phase, the degree of new hair growth in the applied region was quantified (range of 1 to 10 in which new hair growth scores concerning two items are summed) over time on day 0, 4, 5, 6, 7, 10, 11, 12, 13, 14, 17, 18, 19, 20, and 21 after hair removal. […]

[2] = test system: hair papilla cell spheroids; experiment: Hair papilla cell proliferation test by three-dimensional culture (Example 6); assay type: cell-based, C57BL/6N mouse; settings: final concentrations 0.05 wt %, 0.1 wt %, and 1 wt %, cultured for 3 days; FIG. 19
Procedure: In this Example, hair papilla cells prepared in a similar manner to Example 5 were seeded in a 96-well U-bottom microplate for cell culture (from Sumitomo Bakelite Co., Ltd.) at 6,000 cells/well and centrifuged with a plate centrifuge at room temperature and at a rotating speed of 1,000 rpm for 1 minute to yield three-dimensional hair papilla cell spheroids. The spheroids were cultured for 3 days by using each of test solutions A1 to A3 that were hair papilla cell culture media to which D-chiro-inositol dissolved in PBS was added at a final concentration of 0.05 wt %, 0.1 wt %, or 1 wt %; test solutions B1 to B3 that were hair papilla cell culture media to which myo-inositol dissolved in PBS was added at a final concentration of 0.05 wt %, 0.1 wt %, or 1 wt %; and a negative control that was a hair papilla cell culture medium to which PBS alone was added. The spheroids after culturing for 3 days were imaged by using a VHX2000 digital microscope (Keyence Corporation), and the area of the spheroids was calculated by using a digital microscope analysis tool. By calculating a spheroid area increase rate in the test solutions A1 to A3 and B1 to B3, relative to an area increase rate in the negative control as 100%, the proliferation of hair papilla cells in conditions further close to in vivo condition was quantified.

[3] = test system: C57BL/6N mice; experiment: Hair shaft diameter of regrown body hair after hair pull-out (Example 2); assay type: in vivo; settings: 1 wt % in 50% ethanol, once/day 100 μl, day 21 after the application; FIG. 15, P<0.01
Source text: In C57BL6/N mice, it is known that when body hair of the back is pulled out, hair cycles in the pulled-out region are forced to shift to the […], and as a result, the hair cycles in the pulled-out region are synchronized. Therefore, only hair in the anagen phase becomes observable by decreasing variations in hair cycles. Approximately 7 days after hair is pulled out, as a sign of the anagen phase, skin color changing into gray is observed as melanocytes in hair follicles start synthesizing melanin, in addition to growth of pigmented hair. Further, approximately 10 days after hair is pulled out, new hair growth is observed in the pulled-out region. […] Accordingly, hair growth activity can be evaluated from a viewpoint of an increase in hair shaft diameter by measuring the hair shaft diameter of body hair grown in the pulled-out region approximately 21 days after hair is pulled out. […]
The application was performed for two groups (test solution-applied group and negative control group (50% ethanol-applied group)), where each group consisted of six mice. […] About 20 hair shafts were collected from each mouse, and the hair shaft diameter was measured for 10 hair shafts randomly selected from 120 hair shafts in total collected from 6 mice of each group. […]

## OC1C(O)C(O)C(O)C(O)C1O [D-chiro-inositol]
[1]; FIG. 17, negative control day 9
  Average timing of new hair growth (new hair growth score reached 1 or more), number of days after hair removal: 4 days
[1]; day 21 after hair removal, FIG. 16, P<0.05
  New hair growth score vs negative control group: significantly higher
[2]
  Hair papilla cell spheroid area vs negative control: increased significantly
[3]
  Hair shaft diameter vs negative control group: significantly larger
